Experimental data from publication PMC7612312 (Nature chemical biology, 2019).

Test system: clathrin heavy chain (CHC; antibody recognises both CHC1 and CHC2)
Test: CETSA
Type: biochemical, Arabidopsis thaliana

EC50: 123 ± 1.13 µM
Compound: O=S(=O)(Nc1ccccc1)c1ccc(Br)s1 [compound 14, ES9-17]
